Test [1] has as its system NF-kB/p65 protein. The experiment in a line: Western blot of p65 nuclear localisation and K310 acetylation in KL LJE1 cells. The format is cell-based, mouse. The note with it: for quantity of p65 protein in the nuclear fraction: Western blot, 6 hr, 2 uM entinostat, 10uM RGFP966, 0.5 uM TSA. Here is the method:
(§1) Protein lysates in CST buffer (20 mM Tris pH 7.5, 150 mM NaCl, 1% Triton X-100, 50 mM NaF, 1 mM EDTA, 1 mM EGTA, 2.5 mM PyroPhosphate, 2 mM beta-glycerol-phosphate, 1 mM orthovanadate, 0.01 mM Calyculan A) with protease inhibitors were equilibrated for protein levels using a BCA protein assay kit (Pierce), resolved on 8% SDS-PAGE gels, and transferred to membrane. Membranes were blocked in milk, incubated o/n at 4C in diluted primary antibody, washed with TBS-T, incubated 1 hr in secondary antibody diluted in TBS-T plus milk, washed in TBS-T, and developed using SuperSignal ECL. Secondary antibodies: anti-rabbit (Millipore AP132P) and anti-mouse (Millipore AP124P). Nuclear fractions were isolated using a NE-PER nuclear and cytoplasmic extraction kit (Thermofisher) under manufacturers conditions.
p65-expressing DNA constructs RelA-Flag (22) (Addgene 20012) and GFP-RelA (21) (Addgene 23255) were transiently transfected into KL LJE1 cells using Lipofectamine 2000 (Thermo Fisher Scientific) according to the manufacturer's protocol. Cells were treated with drug as indicated 24 hours after transfection.
A general note: Immunoblotting shows a protein as a band on a membrane.

Test [2] concerns KL LJE1 cells. Kind of test: qRT-PCR of chemokine (HRCG) gene expression in KL LJE1 cells. The format is cell-based, mouse. Here is the method:
(§2) All cell lines were incubated at 37° C. and were maintained in an atmosphere containing 5% CO2. Cells were tested for Mycoplasma (Lonza) using manufacturer's conditions and were deemed negative. Cells were grown in Dulbecco's modified Eagles medium (DMEM) plus 10% fetal bovine serum (Gibco) and were continuously maintained under antibiotic selection for stable cell lines. Proliferation assays were performed by plating 2×10^3 cells per well of a 6-well plate, and cells were counted 5 days post-plating. Drug treatments were carried out using the following doses: entinostat 1 uM or 2 uM, RGFP966 10uM, TSA 0.5 uM, BRD3308 5 uM, trametinib 5 nM, 10 nM, and 25 nM, and MRTX1133 10 nM, 25 nM, and 50 nM, as indicated for the indicated treatment lengths. Media was changed and fresh drug added every 2 days.
(§3) mRNA was prepared using the Quick-RNA Miniprep kit (Zymo Research), including DNase treatment. cDNA was synthesized from 2 μg of RNA using SuperScript III (Life Technologies), and qPCR was carried out with diluted cDNA, appropriate primers, and SYBR Green PCR master mix (ThermoFisher Scientific) using a C1000 Thermal Cycler (BioRad). Relative mRNA levels were calculated using the delta Ct method, using Tbp as an internal control.

The subject of test [3] is A549 cells. Kind of test: qRT-PCR of chemokine gene expression in A549 cells. As to conditions: 2 uM entinostat 3 days, 5 uM BRD3308 4 days. It counts as cell-based, human. Here is the method: as §2, §3
(In qPCR the cycle at which signal appears reflects the starting amount.)

The test system of test [4] is H460 cells. The experiment in a line: qRT-PCR of chemokine gene expression in H460 cells. It counts as cell-based, human. The note with it: 1 uM entinostat 4 days, 5 uM BRD3308 4 days. Here is the method: as §2, §3
Test [5] relates to human lung cancer cells. Kind of test: FGFR1 resistance mechanism in human lung cancer cells. It counts as cell-based. The note with it: 6 days of treatment.
Test [6] concerns KL LJE1 cells. Kind of test: Western blot and qRT-PCR of FGFR1, NKX2-1 and ERK phosphorylation in drug-treated KL LJE1 cells. The format is cell-based, mouse. Here is the method:
as §2, §3, §1

The subject of test [7] is KL LJE1 cells. Kind of test: RNA-seq of drug-treated KL LJE1 cells (TIER genes). The format is cell-based, mouse. The note with it: adj. p-value<0.05, 10 nM trametinib. Here is the method: All cell lines were incubated at 37° C. and were maintained in an atmosphere containing 5% CO2. Cells were tested for Mycoplasma (Lonza) using manufacturer's conditions and were deemed negative. Cells were grown in Dulbecco's modified Eagles medium (DMEM) plus 10% fetal bovine serum (Gibco) and were continuously maintained under antibiotic selection for stable cell lines. Proliferation assays were performed by plating 2×10^3 cells per well of a 6-well plate, and cells were counted 5 days post-plating. […]
mRNA was collected from cells harvested within 2 passages post-thaw. mRNA was isolated using the Quick-RNA Miniprep kit (Zymo Research), including DNase treatment. RNA integrity (RIN) numbers were determined using the Agilent TapeStation prior to library preparation. mRNA-seq libraries were prepared using the TruSeq RNA library preparation kit (version 2), according to the manufacturer's instructions (Illumina). Libraries were quantified, pooled, and sequenced by single-end 50 base pairs using the Illumina HiSeq 2500 platform at the Salk Next-Generation Sequencing Core. […]
Sequenced reads were quality-tested using the online FASTQC tool (bioinformatics.babraham.ac.uk/projects/fastqc) and aligned to the mouse mm10 genome using the STAR aligner version 2.4.0k (Ref. 81; incorporated by reference in its entirety). […]

Setting [8] is: HDAC3 KO cells, 5 days, MRTX1133 10, 25, or 50 nM, trametinib 5, 10, or 25 nM.

Turning to `CC(=O)Nc1ccc(C(=O)Nc2ccc(F)cc2N)cc1` [BRD3308], in test [1] (5 hours, 1 uM entinostat or 5 uM BRD3308), the “acetylation of wildtype p65 at K310 (versus K310A mutant)” value is given as “induce acetylation of wildtype p65 at K310”. Further, the “gene expression induction in NT versus p65 KO cells” value in test [2] (3 days, 1 uM entinostat or 5 uM BRD3308) was “p65 facilitates maximal gene expression induction”. The “chemokine (SASP) gene expression” value in test [3] and in test [4] was “induced the expression of these genes” throughout.

Turning to `C#Cc1c(F)ccc2cc(O)cc(-c3ncc4c(N5CC6CCC(C5)N6)nc(OC[C@@]56CCCN5C[C@H](F)C6)nc4c3F)c12` [MRTX1133], the FGFR1 resistance mechanism entry in test [5] was “induces the FGFR1 resistance mechanism”; in test [6] (1 day of treatment), “induces the FGFR1 resistance mechanism in an HDAC3-dependent manner”; in test [6] (5 days of treatment), “induces the FGFR1 resistance mechanism in an HDAC3-dependent manner”. Also, the “ERK phosphorylation at Thr202/Tyr204” value in test [6] (Western blot, 24 hr, 10 nM, 25 nM or 50 nM MRTX1133) is reported as “on-target Kras inhibition”. For the same compound, in test [2] (5 days, MRTX1133 10, 25, or 50 nM), the “HRCG expression, drug alone (NT cells)” value was “did not impact the expression of these genes”. Moreover, the “HDAC3 KO-dependent induction of immunosuppressive HRCGs (Cxc15, Cxc1, Cxc12, Cxc13)” value in test [2] (setting [8]) was “reversed the HDAC3-dependent induction”. Moreover, the “HDAC3 KO-dependent induction of immunosurveillance-related HRCGs (Cc15, Cxc110)” value in test [2] (setting [8]) is “expression was maintained in the presence of MRTX1133”.

Regarding `Nc1cc(F)ccc1NC(=O)/C=C/c1cnn(C/C=C/c2ccccc2)c1` [RGFP966], in test [1], the “quantity of p65 protein in the nuclear fraction” value is “increased the quantity of p65 protein in the nuclear fraction”. In addition, the “chemokine (SASP) gene expression” value in test [2] (72 hr, 2 uM entinostat or 10uM RGFP966) is on record as “robust induction of gene expression”.

Consider `CC(/C=C/C(=O)NO)=C\[C@@H](C)C(=O)c1ccc(N(C)C)cc1` [TSA, trichostatin a], for which the “quantity of p65 protein in the nuclear fraction” value in test [1] is listed as “increased the quantity of p65 protein in the nuclear fraction”.

Regarding `CC(=O)Nc1cccc(-n2c(=O)n(C3CC3)c(=O)c3c(Nc4ccc(I)cc4F)n(C)c(=O)c(C)c32)c1` [trametinib], the “genes upregulated upon 13 day trametinib compared to vehicle” value in test [7] was 2,141 genes.
